These results are taken from PMC9138599, “Clade-Specific Alterations within the HIV-1 Capsid Protein with Implications for Nuclear Translocation” (Biomolecules, 2022).

One may read the koff as the rate constant with which the complex falls apart. Higher therefore signals a short-lived complex. As usually defined, the kon is the second-order rate constant of association. Read a low kon as slower complex formation.

Experiment [1] relates to monomeric HIV-1 CA protein, clade D (94UG114.1). Briefly: In vitro CA assembly (turbidity) assay, clade D. Particulars: clade D CA 30 µM, 50 µM inhibitor, 3 M NaCl, first 120 s, n = 3. The class given is biochemical.
Procedure: (§1) In vitro assembly of the monomeric HIV-1 CA proteins was performed using a modification of the standard CA turbidity assembly assay [62, 63, 64, 65, 66]. This assay relies upon the fact that the addition of high salt to HIV-1 CA protein causes self-assembly that can be monitored and quantified as the increase in turbidity over time, as described in Kortagere et al. [61, 67]. Briefly, 75 µL of buffer was prepared, containing a final concentration of 50 mM NaH2PO4 pH 8.0 and various concentrations (1–5 M) of NaCl to assess the optimal concentration of salt needed to initiate assembly after the addition of the purified clade variants. To initiate the assembly reaction, 25 µL of 120 µM purified capsid was added to a final CA concentration of 30 µM (including matching DMSO concentrations). In the presence of compounds, the in vitro reaction contained 50 mM NaH2PO4 pH 8.0, 30 µM CA protein, 50 µM inhibitor, 3% DMSO, and 3 M NaCl. Readings were then taken at 350 nm every 30 s for 20 min to measure the increase in turbidity over time. The OD at 350 nm over the first 2 min was then plotted and fit with a linear regression to calculate the initial velocity (AU/min) of CA assembly.
Experiment [2] has as its target T1, monomeric HIV-1 CA protein, clade C (92BR025.8) (Human immunodeficiency virus type 1 group M subtype C, UniProt O12157).
T1 construct: hexahistidine (C); made in house; host or cells: E. coli BL21 (DE3) RIL
Briefly: In vitro CA assembly (turbidity) assay, clade C. The class given is biochemical. Particulars: clade C CA 30 µM, 50 µM inhibitor, 3 M NaCl, first 120 s, n = 3.
Procedure: as §1

Experiment [3] has as its system HIV-1 CA hexamer from clade D (94UG114.1). The class given is binding. To be noted: SPR.
Experiment [4] relates to HIV-1 CA hexamer from clade A1 (92UG037.1). The class given is binding. Particulars: SPR.
Experiment [5] concerns monomeric HIV-1 CA protein, clade A2 (CDKTB48). Briefly: In vitro CA assembly (turbidity) assay, clade A2. It counts as biochemical. Particulars: 3 M NaCl.
Procedure: as §1
The target in experiment [6] is HIV-1 CA hexamer from clade C (92BR025.8) (Human immunodeficiency virus type 1 group M subtype C, UniProt O12157, E175C/M315A/P144C/W314A). Briefly: SPR binding to immobilized HIV-1 CA hexamer, clade C. On the technique in general: SPR reads the build-up and loss of mass on a sensor chip optically.
Experiment [7] has as its target HIV-1 CA hexamer from clade B (NL4-3) (Human immunodeficiency virus type 1 group M subtype B, UniProt P12493, A146C/E177C/M317A/W316A). The experiment can be described thus: SPR binding to immobilized HIV-1 CA hexamer, clade B.
Experiment [8] concerns HIV-1 CA hexamer from clade A2 (CDKTB48). It counts as binding. To be noted: SPR.
Experiment [9] deals with monomeric HIV-1 CA protein, clade A1 (92UG037.1). The experiment can be described thus: In vitro CA assembly (turbidity) assay, clade A1. The class given is biochemical. To be noted: 3 M NaCl.
Procedure: as §1
Experiment [10] addresses monomeric HIV-1 CA protein, clade B (NL4-3) (Human immunodeficiency virus type 1 group M subtype B, UniProt P12493).
Procedure: as §1
Experiment [11] concerns the target tri-hexameric interface of CA hexamers. On the set-up: method as in PMID 34835048. Particulars: RRR patch binding into tri-hexameric interface; cited from earlier work.
Where [12] appears, read: Langmuir isotherm equilibrium fit, 25 °C, n = 3, read-out: KD Equilibrium.
The mark [13] stands for this setting: global fit, n = 3, read-out: KD Kinetic/Global.
[14] abbreviates: SPR, clade B (NL4.3) hexamer, 1:1 binding model, n = 3.

Where two headings read alike, the source gives them in different places.

Chain of HIV-1 CA hexamer from clade C (92BR025.8) (O12157 131-361 P144C/E175C/W314A/M315A): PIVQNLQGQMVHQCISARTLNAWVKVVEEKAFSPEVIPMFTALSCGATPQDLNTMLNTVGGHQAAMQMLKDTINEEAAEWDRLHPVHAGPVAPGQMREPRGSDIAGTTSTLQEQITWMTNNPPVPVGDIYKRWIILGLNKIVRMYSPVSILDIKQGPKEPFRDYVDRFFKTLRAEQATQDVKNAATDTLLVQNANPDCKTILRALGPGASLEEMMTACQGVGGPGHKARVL
T1 sequence (O12157 131-361): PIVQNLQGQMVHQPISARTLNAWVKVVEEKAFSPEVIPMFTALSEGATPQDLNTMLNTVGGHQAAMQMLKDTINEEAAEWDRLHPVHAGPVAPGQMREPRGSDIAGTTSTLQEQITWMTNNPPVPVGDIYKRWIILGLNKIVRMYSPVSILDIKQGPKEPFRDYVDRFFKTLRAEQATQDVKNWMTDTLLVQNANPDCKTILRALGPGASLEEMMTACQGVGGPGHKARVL

On to PF-74, for which the “Initial Velocity PF-74” value was found to be 0.050 ± 0.008 AU/min in [1]; 0.039 ± 0.007 AU/min in [2]; 0.017 ± 0.002 AU/min in [5] (clade A2 CA 30 µM, 50 µM inhibitor, first 120 s, n = 3); 0.034 ± 0.001 AU/min in [9] (clade A1 CA 30 µM, 50 µM inhibitor, first 120 s, n = 3); 0.043 ± 0.009 AU/min in [10]. The koff in [3] (1:1 binding model, n = 3) amounted to 0.0395 s⁻¹; in experiment [4] (1:1 binding model, n = 3) it was 0.647 s⁻¹; in experiment [6] (1:1 binding model, n = 3), 0.0754 s⁻¹; in experiment [7] (setting [14]), 0.0363 s⁻¹; in experiment [8] (1:1 binding model, n = 3) it was 0.0916 s⁻¹. The kon in experiment [3] (1:1 binding model, n = 3) worked out at 773000 M⁻¹ s⁻¹; in experiment [4] (1:1 binding model, n = 3), 615000 M⁻¹ s⁻¹; in [6] (1:1 binding model, n = 3) it was 228000 M⁻¹ s⁻¹; in [7] (setting [14]) it was 756000 M⁻¹ s⁻¹; in experiment [8] (1:1 binding model, n = 3) it was 669000 M⁻¹ s⁻¹. Further, the Kd in experiment [3] (setting [12]) came out at 0.051 µM; in experiment [3] (setting [13]), 0.051 µM; in experiment [4] (setting [12]), 0.716 µM; in experiment [4] (setting [13]), 0.947 µM; in [6] (setting [12]), 0.354 µM; in [6] (setting [13]), 0.33 µM. Further, the Kd in experiment [8] (setting [12]) worked out at 0.138 µM; in experiment [8] (setting [13]), 0.139 µM. Also, the “fold increase in assembly rate (initial velocity) vs Apo” value is recorded as 1.3 fold in [5] (clade A2, 50 µM inhibitor, initial 120 s) and 1.5 fold in [9] (clade A1, 50 µM inhibitor, initial 120 s). In [7] (SPR data, clade B vs clade A1), the “fold tighter binding to clade B protein compared to clade A1 protein” value is given as ~ 20 fold.

Turning to “RRR patch: highly positively charged RRR motif at the C-terminus of NUP-153 binding the tri-hexameric interface of CA (FSGRKIKTAVRRRK; UniProt P49790 1462-1475, looked up, fragment)”, the Kd in [11] was 0.8 µM.

Consider `CC(C)[C@H](NC(=O)CNC(=O)[C@H](CO)NC(=O)[C@@H]1CCCN1C(=O)[C@H](CO)NC(=O)[C@H](CC(N)=O)NC(=O)[C@H](CC(N)=O)NC(=O)[C@@H](N)[C@@H](C)O)C(=O)N[C@@H](Cc1ccccc1)C(=O)N[C@H](C(=O)N[C@@H](Cc1ccccc1)C(=O)NCC(=O)N[C@@H](C)C(=O)N[C@@H](CC(N)=O)C(=O)N[C@@H](CO)C(=O)N[C@@H](CO)C(=O)N[C@H](C(=O)O)[C@@H](C)O)[C@@H](C)O` [NUP-153], for which the Kd in experiment [6] (Langmuir isotherm equilibrium fit, n = 3, read-out: KD Equilibrium) was determined as 503 µM; in experiment [6] (setting [13]), 881 µM.
